Experiments:
[1] = biological target: [Pyruvate dehydrogenase (acetyl-transferring)] kinase isozyme 2, mitochondrial (Homo sapiens, UniProt Q15119)
Description: Inhibition of human PDHK2 using PDHKtide and Mn2+ as substrates pre-incubated for 20 min followed by addition of [gamma-33P]-ATP measured after 2 hrs by Radiometric Hotspot kinase assay

[2] = biological target: [Pyruvate dehydrogenase (acetyl-transferring)] kinase isozyme 3, mitochondrial (Homo sapiens, UniProt Q15120)
Description: Inhibition of human PDHK3 using myelin basic protein as substrate pre-incubated for 20 min followed by addition of [gamma-33P]-ATP measured after 2 hrs by Radiometric Hotspot kinase assay

[3] = biological target: [Pyruvate dehydrogenase (acetyl-transferring)] kinase isozyme 4, mitochondrial (Homo sapiens, UniProt Q16654)
[Pyruvate dehydrogenase (acetyl-transferring)] kinase isozyme 4, mitochondrial, sequence (Q16654 whole entry): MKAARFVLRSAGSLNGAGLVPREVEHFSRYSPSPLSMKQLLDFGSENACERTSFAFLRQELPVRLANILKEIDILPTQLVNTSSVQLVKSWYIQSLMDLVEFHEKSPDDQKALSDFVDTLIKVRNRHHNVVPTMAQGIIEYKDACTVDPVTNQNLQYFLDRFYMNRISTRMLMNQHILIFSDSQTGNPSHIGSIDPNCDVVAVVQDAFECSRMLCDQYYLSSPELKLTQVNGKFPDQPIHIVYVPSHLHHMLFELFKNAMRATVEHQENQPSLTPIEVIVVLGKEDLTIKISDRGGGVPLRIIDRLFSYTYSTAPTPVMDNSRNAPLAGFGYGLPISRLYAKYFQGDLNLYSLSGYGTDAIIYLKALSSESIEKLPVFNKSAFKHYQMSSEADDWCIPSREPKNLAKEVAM
Description: Inhibition of human PDHK4 using myelin basic protein as substrate pre-incubated for 20 min followed by addition of [gamma-33P]-ATP measured after 2 hrs by Radiometric Hotspot kinase assay

[Pyruvate dehydrogenase (acetyl-transferring)] kinase isozyme 3, mitochondrial, sequence (Q15120 whole entry): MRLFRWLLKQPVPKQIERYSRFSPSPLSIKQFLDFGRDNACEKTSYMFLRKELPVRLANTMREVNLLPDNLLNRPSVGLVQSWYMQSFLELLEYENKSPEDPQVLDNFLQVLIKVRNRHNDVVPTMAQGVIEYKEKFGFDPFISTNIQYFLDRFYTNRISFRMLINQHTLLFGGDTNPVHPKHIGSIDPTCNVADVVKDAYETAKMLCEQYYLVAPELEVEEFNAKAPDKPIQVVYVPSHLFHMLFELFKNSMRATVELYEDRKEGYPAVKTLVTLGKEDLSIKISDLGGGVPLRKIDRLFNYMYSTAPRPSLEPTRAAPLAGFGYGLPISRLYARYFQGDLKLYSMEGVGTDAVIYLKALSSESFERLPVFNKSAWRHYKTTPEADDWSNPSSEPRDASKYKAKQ

SMILES	IC50 [1] [µM]	IC50 [2] [µM]	IC50 [3] [µM]
Cc1ccc(Cl)cc1S(=O)(=O)Nc1cc(C#N)ccc1Br	> 30	> 30	15.5
Cc1ccc(Cl)cc1S(=O)(=O)Nc1cc(Br)cc(C(=O)O)c1	> 30	> 30	23.6
CSc1ccc(C(=O)O)cc1NS(=O)(=O)c1cc(Cl)ccc1C	> 30	> 30	> 30
Cc1ccc(Cl)cc1S(=O)(=O)Nc1cc(C(=O)O)ccc1Br	> 30	> 30	30
O=C(O)C(Cl)Cl [DICHLOROACETIC ACID]	> 5000	> 5000	108

The remaining lines, values ahead:

IC50 [1] [µM]	IC50 [2] [µM]	IC50 [3] [µM]	SMILES
> 30	> 30	> 30	O=C(O)c1ccc(Br)c(NS(=O)(=O)c2ccc(Cl)s2)c1
> 30	> 30	17	O=C(O)c1ccc(Br)c(NS(=O)(=O)c2cc(Cl)cc(Cl)c2)c1
> 30	> 30	> 30	COc1cc(C(=O)O)cc(NS(=O)(=O)c2cc(Cl)ccc2C)c1Cl

From ChEMBL document CHEMBL6121009, “Identification of a selective pyruvate dehydrogenase kinase 1 (PDHK1) chemical probe by virtual screening” (Eur J Med Chem, 2025)
